pIC50: −log10 of the molar value.
Experiments:
Weel kinase = biological target: T1, Weel kinase (Homo sapiens, UniProt P30291); test: Weel kinase-inhibitory effect (33P-ATP filter assay with purified GST-tagged Weel kinase); format: biochemical; conditions: Poly(Lys,Tyr) substrate, 10 μM ATP, 30° C. for 30 minutes
T1 construct: made in house; host or cells: Sf9 insect cells (recombinant baculovirus)
Source text: Pharmaceutical Test 1 (Weel Kinase-Inhibitory Effect)
(1) Purification of Weel Kinase:
A cDNA of Weel kinase with […] (GST) fused at the amino terminal thereof was inserted into a baculovirus expression vector to construct a recombinant baculovirus, with which cells of an insect cell line Sf9 were infected for high expression therein. The infected cells were recovered and solubilized, and then the GST-tagged Weel kinase protein was adsorbed by a glutathione column, and eluted from the column with glutathione, and the active fraction was desalted in a desalting column to give a purified enzyme.
(2) Determination of Weel Kinase Activity:
In determination of the Weel kinase activity, a synthetic peptide, Poly(Lys,Tyr) Hydrobromide (Lys:Tyr (4:1)) bought from Sigma was used as the substrate.
The amount of the reaction mixture was 21.1 μL; and the composition of the reaction buffer was 50 mM Tris-HCl buffer (pH 7.4)/10 mM magnesium chloride/1 mM dithiothreitol. The purified Weel kinase, 2.5 μg of the substrate peptide, 10 μM of non-labeled adenosine triphosphate (ATP) and 1 μCi of [γ-^33P]-labeled ATP (2500 Ci/mmol or more) were added to it, and incubated at 30° C. for 30 minutes. Next, 10 μL of 350 mM phosphate buffer was added to the reaction mixture to stop the reaction. The substrate peptide was adsorbed by a P81 paper filter 96-well plate, then washed a few times with 130 mM phosphate buffer, and its radioactivity was counted with a liquid scintillation counter. The [γ-^33P]-labeled ATP was bought from Amersham Bioscience.
To add the test compound to the reaction system, the compound was diluted with dimethylsulfoxide (DMSO) to prepare a series of dilutions. 1.1 μL of each dilution was added to the reaction system. As a control, 1.1 μL of DMSO was added to the reaction system.

[1] = tested on: Human colon cancer cells WiDr; test: Tumor growth-inhibitory effect, WiDr tumor implanted subcutaneously in nude rats; format: in vivo, F344/N Jcl-mu nude rats; conditions: gemcitabine 50 mg/kg intravenously alone
Description: Pharmaceutical Test 4 (Tumor Growth-Inhibitory Effect)
Human colon cancer cells WiDr (gotten from ATCC) were implanted into the subcutaneous area of the back of F344/N Jcl-mu nude rats. Eight days after the implantation, gemcitabine (50 mg/kg, Gemzar injection, Eli-Lilly) was intravenously administered to them; and after 24 hours, a test compound was dissolved in a solvent (5% glucose) and given to them through continuous intravenous injection for 8 hours. The tumor volume (0.5×(major diameter)×(minor diameter)^2) was determined on day 0, 3, 6, 10 and 13. Day 0 means the day on which gemcitabine was administered. The relative tumor volume is a relative value, as calculated on the basis of the tumor volume of 1 on day 0. The tumor growth percentage (% T/C) was obtained according to the following formula:
When the tumor volume change from day 0 in the group subjected to test compound administration is more than 0 (>0): % T/C=[(tumor volume change in the test compounds on day 3, 6, 10, 13)/(tumor volume change in the control on day 3, 6, 10, 13)]×100. When the tumor volume change from day 0 in the group subjected to test compound administration is less than 0 (<0): % T/C=[(tumor volume change in the test compounds on day 3, 6, 10, 13)/(tumor volume […])]×100.

T1 sequence (P30291 whole entry): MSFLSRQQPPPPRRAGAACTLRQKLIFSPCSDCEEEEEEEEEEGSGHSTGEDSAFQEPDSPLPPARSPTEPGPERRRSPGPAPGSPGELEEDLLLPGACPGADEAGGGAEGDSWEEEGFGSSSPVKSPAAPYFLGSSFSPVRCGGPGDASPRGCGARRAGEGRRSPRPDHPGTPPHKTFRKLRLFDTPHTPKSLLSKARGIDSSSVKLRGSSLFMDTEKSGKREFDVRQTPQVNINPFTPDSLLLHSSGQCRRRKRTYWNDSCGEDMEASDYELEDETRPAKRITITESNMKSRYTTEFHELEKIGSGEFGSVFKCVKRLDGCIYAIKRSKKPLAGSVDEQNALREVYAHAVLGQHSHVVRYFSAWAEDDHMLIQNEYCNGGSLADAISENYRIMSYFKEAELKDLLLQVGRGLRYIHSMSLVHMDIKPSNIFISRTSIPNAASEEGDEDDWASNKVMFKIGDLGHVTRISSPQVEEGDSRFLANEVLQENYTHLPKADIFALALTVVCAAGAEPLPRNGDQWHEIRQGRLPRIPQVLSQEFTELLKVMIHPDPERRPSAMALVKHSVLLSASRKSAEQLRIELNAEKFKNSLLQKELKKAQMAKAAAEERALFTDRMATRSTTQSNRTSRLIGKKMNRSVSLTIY

C=CCn1c(=O)c2cnc(Nc3ccc(N4CCN(C)CC4)cc3)nc2n1-c1cccc(C(=O)N(C)C)c1 [Example 1, 3-(2-allyl-6-{[4-(4-methylpiperazin-1-yl)phenyl]amino}-3-oxo-1,2-dihydro-3H-pyrazolo[3,4-d]pyrimidin-1-yl)-N,N-dimethylbenzamide] was tested, and the pIC50 (Weel kinase) was 8.15.

C=CCn1c(=O)c2cnc(Nc3ccc(N4CCN(C)CC4)c(CO)c3)nc2n1-c1ccsc1 [Example 3, 2-allyl-6-{[3-(hydroxymethyl)-4-(4-methylpiperazin-1-yl)phenyl]amino}-1-(3-thienyl)-1,2-dihydro-3H-pyrazolo[3,4-d]pyrimidin-3-one] showed a pIC50 (Weel kinase) of 8.12.

In the case of C=CCn1c(=O)c2cnc(Nc3ccc(N4CCN(C)CC4)cc3)nc2n1-c1cccc(CN(C)C)c1 [Example 26, 2-allyl-1-[3-(dimethylaminomethyl)phenyl]-6-{[4-(4-methylpiperazin-1-yl)phenyl]amino}-1,2-dihydro-3H-pyrazolo[3,4-d]pyrimidin-3-one], the pIC50 (Weel kinase) was 7.74.

C=CCn1c(=O)c2cnc(Nc3ccc(N4CCN(C)CC4)c(CO)c3)nc2n1-c1ccccn1 [Example 29, 2-allyl-6-{[3-hydroxymethyl-4-(4-methylpiperazin-1-yl)phenyl]amino}-1-pyridin-2-yl-1,2-dihydro-3H-pyrazolo[3,4-d]pyrimidin-3-one] was tested, and the pIC50 (Weel kinase) was 7.70.

C=CCn1c(=O)c2cnc(Nc3ccc(N4CCN(C)CC4)c(C)c3)nc2n1-c1cccc(CN(C)C)n1 [Example 52, 2-allyl-1-[6-[(dimethylamino)methyl]pyridin-2-yl]-6-{[3-methyl-4-(4-methylpiperazin-1-yl)phenyl]amino}-1,2-dihydro-3H-pyrazolo[3,4-d]pyrimidin-3-one] gave a pIC50 (Weel kinase) of 7.92.

For C=CCn1c(=O)c2cnc(Nc3ccc(N4CCN(C)CC4)c(C)c3)nc2n1-c1cccc(OCCO)n1 [Example 98, 2-allyl-1-[6-(2-hydroxyethoxy)pyridin-2-yl]-6-{[3-methyl-4-(4-methylpiperazin-1-yl)phenyl]amino}-1,2-dihydro-3H-pyrazolo[3,4-d]pyrimidin-3-one], the pIC50 (Weel kinase) was 7.85.

Work on C=CCn1c(=O)c2cnc(Nc3ccc(N4CCN(C)CC4)cc3)nc2n1-c1cccc(CN(C)S(C)(=O)=O)n1 [Example 99, N-{[6-(2-allyl-6-{[4-(4-methylpiperazin-1-yl)phenyl]amino}-3-oxo-1,2-dihydro-3H-pyrazolo[3,4-d]pyrimidin-1-yl)pyridin-2-yl]methyl}-N-methylmethanesulfonamide] yielded a pIC50 (Weel kinase) of 8.06.

Cc1cc(Nc2ncc3c(=O)n(Cc4ccccc4)n(-c4ccccc4)c3n2)ccc1N1CCN(C)CC1 [Example 111, 2-benzyl-6-{[3-methyl-4-(4-methylpiperazin-1-yl)phenyl]amino}-1-phenyl-1,2-dihydro-3H-pyrazolo[3,4-d]pyrimidin-3-one] showed a pIC50 (Weel kinase) of 7.62.

C#CCn1c(=O)c2cnc(Nc3ccc(N4CCN(C)CC4)cc3)nc2n1-c1cccc(C(C)(C)O)n1 [Example 113, 1-[6-(1-hydroxy-1-methylethyl)pyridin-2-yl]-6-{[4-(4-methylpiperazin-1-yl)phenyl]amino}-2-(2-propynyl)-1,2-dihydro-3H-pyrazolo[3,4-d]pyrimidin-3-one] gave a pIC50 (Weel kinase) of 8.20.

Work on CC(C)n1c(=O)c2cnc(Nc3ccc(C4CCN(C)CC4)cc3)nc2n1-c1cccc(C(C)(C)O)n1 [Example 147, 1-[6-(1-hydroxy-1-methylethyl)pyridin-2-yl]-2-isopropyl-6-{[4-(1-methylpiperidin-4-yl)phenyl]amino}-1,2-dihydro-3H-pyrazolo[3,4-d]pyrimidin-3-one] yielded a pIC50 (Weel kinase) of 7.62.

Compound C=CCn1c(=O)c2cnc(Nc3ccc(N4CCN(C)CC4)cc3)nc2n1-c1cccc(N2CCN(C)C2=O)n1 [Example 148, 2-allyl-1-[6-(3-methyl-2-oxoimidazolidin-1-yl)pyridin-2-yl]-6-{[4-(4-methylpiperazin-1-yl)phenyl]amino}-1,2-dihydro-3H-pyrazolo[3,4-d]pyrimidin-3-one] has a pIC50 (Weel kinase) of 7.77.

With Nc1ccn([C@@H]2O[C@H](CO)[C@@H](O)C2(F)F)c(=O)n1 [Gemcitabine, gemcitabine, reference compound] the “% T/C day 3” value ([1]; day 3) was 22%, the “% T/C day 6” value ([1]; day 6) was 31% and the “% T/C day 10” value ([1]; day 10) was 54%. For the same compound, the “% T/C day 13” value ([1]; day 13) was 65%.

From patent US7834019B2, “Substituted pyrazolo[3,4-d]pyrimidinone derivatives” (Banyu Pharmaceutical Co., Ltd., priority 2006, dated 2010)
